Here are results for five compounds from ChEMBL document CHEMBL1201862, “PubChem BioAssay data set” (2004).

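Interpolation was linear, between the two tested concentrations surrounding the appropriate level; five concentrations were tested over 48 hours in 96-well plates. GI50 marks 50% less growth.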 Calls of active or inactive are those of the source. Cut-off read from the data, not from the text of the source: active = GI50 up to about 1.1 µM and inactive = higher.

Some test systems named below: A498; EKVX; HCC 2998; HCT-15; NCI-H522; OVCAR-8; SF-295; SK-MEL-28; SNB-75; SR; UACC-257; UO-31; CAKI-1; KM12; OVCAR-3; SK-MEL-2; OVCAR-5; TK-10.
What all share (experiment): NCI tumour cell line growth inhibition, 48 h

`COc1ccc(/C(Cl)=C/c2ccc(Cl)c(Cl)c2)cc1`: the GI50 in the assay on A498 was 24.9 µM (inactive); in the assay on EKVX it was 20.2 µM (inactive); with HCC 2998, 19.8 µM (inactive); in the assay with HCT-15 it was 23.1 µM; in the assay on NCI-H522, 16.3 µM (inactive); in the assay on OVCAR-8, 29.1 µM (inactive). The GI50 is 23.7 µM (inactive) with SF-295; 38.2 µM (inactive) in the assay on SK-MEL-28; 28.5 µM (inactive) with SNB-75; 18.9 µM (inactive) in the assay with SR; 24.3 µM (inactive) in the assay on UACC-257; 26.5 µM (inactive) in the assay with UO-31.

`COC1/C(=C\C(C)=O)c2ccccc2N1C(C)=O` (stereo not given): the GI50 is > 100 µM (inactive) in the assay on A498; > 100 µM (inactive) with CAKI-1; > 100 µM (inactive) with EKVX; > 100 µM (inactive) in the assay on HCC 2998; over 100 µM with HCT-15; > 100 µM (inactive) with KM12. Also, the GI50 with OVCAR-3, with OVCAR-8, with SF-295, in the assay on SK-MEL-28, in the assay with SK-MEL-2 and in the assay with SNB-75 was > 100 µM (inactive) throughout. Further, the GI50 with SR, in the assay with UACC-257 and in the assay with UO-31 was > 100 µM (inactive) throughout.

`Cc1ccc(C(=O)O/N=C2/CCCCC2CN(C)C)cc1` (stereo not given): the GI50 in the assay on A498 was > 100 µM (inactive); in the assay on CAKI-1, > 100 µM (inactive); in the assay with EKVX it was > 100 µM (inactive); with HCC 2998 it was > 100 µM (inactive); in the assay with HCT-15, over 100 µM; in the assay on KM12, > 100 µM (inactive). The GI50 in the assay on NCI-H522, in the assay with OVCAR-3, with OVCAR-5, in the assay with OVCAR-8, in the assay on SF-295 and in the assay with SK-MEL-28 was > 100 µM (inactive) each time. Besides, the GI50 in the assay on SK-MEL-2, with SNB-75, in the assay on SR, in the assay with TK-10, in the assay with UACC-257 and in the assay on UO-31 was > 100 µM (inactive) in each case.

Consider `CSc1cnc2ccccc2c1Sc1c[nH]c2ccccc2c1=O`, for which the GI50 was 12.4 µM (inactive) in the assay with A498; 7.87 µM (inactive) with EKVX; 12.9 µM (inactive) in the assay on HCC 2998; 7.1 µM with HCT-15; 6.82 µM (inactive) in the assay with KM12; 1.93 µM (inactive) in the assay with NCI-H522. Also, the GI50 in the assay on OVCAR-3 was 5.22 µM (inactive); in the assay on OVCAR-5, 24.4 µM (inactive); in the assay on OVCAR-8, 14 µM (inactive); with SF-295, 7.59 µM (inactive); with SK-MEL-28, 11.1 µM (inactive); with SK-MEL-2 it was 10.4 µM (inactive). For the same compound, the GI50 is 2.79 µM (inactive) with SNB-75; 3.96 µM (inactive) in the assay with SR; 36 µM (inactive) with TK-10; 11.3 µM (inactive) in the assay with UACC-257; 14 µM (inactive) with UO-31.

For `c1ccc2cc(-c3cc4ccccc4s3)ccc2c1`, the GI50 is > 100 µM (inactive) in the assay with A498; > 100 µM (inactive) in the assay on CAKI-1; > 100 µM (inactive) with EKVX; > 100 µM (inactive) with HCC 2998; over 100 µM in the assay on HCT-15; > 100 µM (inactive) in the assay with KM12. In addition, the GI50 in the assay with NCI-H522, in the assay with OVCAR-3, in the assay on OVCAR-5, in the assay on OVCAR-8, in the assay with SF-295 and in the assay with SK-MEL-28 was > 100 µM (inactive) each time. Also, the GI50 is > 100 µM (inactive) in the assay with SK-MEL-2; 23.1 µM (inactive) in the assay with SNB-75; > 100 µM (inactive) in the assay with SR; > 100 µM (inactive) in the assay on TK-10; > 100 µM (inactive) with UACC-257; > 100 µM (inactive) in the assay with UO-31.
